Test results published in patent US11459624B2, “Compositions and methods for determining resistance to inhibitors of virus entry using recombinant virus assays” (MONOGRAM BIOSCIENCES, INC., priority 2004, dated 2022).

Tested on: HIV-1
Assay: Phenotypic HIV-1 entry inhibitor susceptibility assay (pseudotyped virus, single-round infection, luciferase readout)
Format: cell-based
Conditions: for IC50 for inhibition of entry, resistant HIV relative to sensitive reference virus / maximum percentage of inhibition, resistant viruses relative to sensitive viruses: log-sigmoid inhibition curves; for IC50 for inhibition of entry, resistant HIV relative to sensitive reference virus / completeness of inhibition of entry of resistant virus at high inhibitor concentrations / maximum percentage of inhibition, resistant viruses relative to sensitive viruses: viruses resistant to the inhibitor; for IC50 for inhibition of entry, resistant HIV relative to sensitive reference virus: FIG. 5; for maximum percentage of inhibition, resistant viruses relative to sensitive viruses: FIG. 6, FIG. 8
Procedure: Susceptibility assays for HIV-1 entry inhibitors were performed using packaging host cells consisting of the human embryonic kidney cell line 293 (Cell Culture Facility, UC San Francisco, SF, Calif.) and target host cells consisting of a human osteosarcoma (HOS) cell line expressing CD4 (HT4) plus CCR5, and CXCR4, or astrocytoma (U-87) cell lines expressing either CD4 and CCR5 or CD4 and CXCR4.
Drug susceptibility testing was performed using pHIVenv and pHIVluc or pHIVlucΔU3. Pseudotyped HIV particles containing envelope proteins encoded by the subject derived segment were produced by transfecting a packaging host cell (HEK 293) with resistance test vector DNA. Virus particles were collected about 48 h after transfection and were used to infect target cells (HT4/CCR5/CXCR4, or U-87/CD4/CXCR4, or U-87/CD4/CCR5) that express the HIV receptor (i.e. CD4) and co-receptors (i.e. CXCR4, CCR5). After infection (~72 h) the target cells are lysed and luciferase activity is measured. HIV must complete one round of replication to successfully infect the target host cell and produce luciferase activity. The amount of luciferase activity detected in the infected cells is used as a direct measure of “infectivity” (FIGS. 1 and 2). […] Drug susceptibility is assessed by comparing the infectivity in the absence of drug to infectivity in the presence of drug.
Packaging host cells were seeded in 10-cm-diameter dishes and were transfected one day after plating with pHIVenv and pHIVluc or pHIVlucΔU3. Transfections were performed using a calcium-phosphate co-precipitation procedure. The cell culture media containing the DNA precipitate was replaced with fresh medium, from one to 24 hours, after transfection. Cell culture media containing viral particles was typically harvested 2 days after transfection and was passed through a […] filter. Before infection, target cells were plated in cell culture media. […] Typically, 3 days after infection target cells were assayed for luciferase activity using the Steady-Glo reagent (Promega) and a luminometer.
However, any such susceptibility assay known by one of skill in the art can in principle be used in the methods for determining phenotypic drug susceptibility. Drug susceptibility can be plotted, for example, as percent inhibition versus log10 drug concentration and defined based on, for example, the IC50 and percent inhibition at the highest drug concentration. […] In this example, the phenotypic drug susceptibility assay of Example 1 was used to determine a log-sigmoid curve showing the resistance of mutant HIV to SCH-C, TNX-355, T-20, and AMD-3100.

Row | Molecule | IC50 for inhibition of entry, resistant HIV relative to sensitive reference virus | completeness of inhibition of entry of resistant virus at high inhibitor concentrations | maximum percentage of inhibition, resistant viruses relative to sensitive viruses | susceptibility of viruses with drug resistance mutations in the gp41 envelope protein (cells expressing CD4, CCR5 and CXCR4, isogenic viruses with one or two gp41 mutations, FIG. 4B)
1 | c1cc(CN2CCCNCCNCCCNCC2)ccc1CN1CCCNCCNCCCNCC1 [AMD-3100] | increased IC50 | can be completely inhibited | – | –
2 | CCO/N=C(\c1ccc(Br)cc1)C1CCN(C2(C)CCN(C(=O)c3c(C)cc[n+]([O-])c3C)CC2)CC1 [SCH-C] | – | – | reduced maximum percentage of inhibition | –
3 | TNX-355: HIV entry inhibitor (Tanox Inc.), non-competitive | – | – | reduced maximum percentage of inhibition | –
4 | enfuvirtide | increased IC50 | can be completely inhibited | – | reduced susceptibility
